# From US10548319B2, “Compositions and methods for synthetic amphiphile-induced changes in plant root morphology” (The Curators of the University of Missouri, priority 2014, dated 2020)
# Where two headings read alike, the source gives them in different places. * marks the point of attachment. (CH3(CH2)17)2NCOCH2OCH2CO = CCCCCCCCCCCCCCCCCCN(CCCCCCCCCCCCCCCCCC)C(=O)COCC(=O)*; (C12H25)2NCOCH2CH2CO = CCCCCCCCCCCCN(CCCCCCCCCCCC)C(=O)CCC(=O)*; O(CH2)6CH3 = CCCCCCCO*; OC7H15 = CCCCCCCO*
# Columns and labels:
# [1] = test system: A. thaliana (Col-0) plant; assay type: in vivo, Arabidopsis thaliana; conditions: for Decrease in primary root length: vs PNS
# From the text: The effect treating a plant with a composition comprising a synthetic amphiphile on root morphology or other physical characteristics or attributes can be quantitated. For example, a change in primary root length can be determined by measuring the difference, if any, in primary root length of a plant treated with the composition compared to the average of a control sample of plants of the same type grown under identical conditions in the absence of the composition. A change in lateral root density can be determined by comparing the lateral root density of a plant treated with the composition to the average lateral root density of a sample grown under identical conditions in the absence of the composition. Lateral root density can be determined by dividing the number of lateral roots by the length of the primary root. In certain embodiments for any quantitated characteristic or attribute, the average value of the control is the average of a statistically significant population of control plants. For example, in certain illustrative embodiments disclosed herein, three trials of about 20 plants each were used to determine the average of the control.
# Illustrative of certain embodiments, approximately 60 plants were grown on PNS media (no additives) and root lengths and the number of lateral roots were recorded for each. The data points were averaged to obtain the following baseline values: primary root length=40.4±3.8 mm and number of lateral roots=6.1±0.8, respectively. The lateral root density was obtained by dividing the number of lateral roots by the length (in mm) of the primary root. The control value was (6.1/[…]=) 0.15.
# Test compounds were added to the growth medium as 0.2% by volume DMSO. […]
# To make 500 mL PN media, 485 mL doubly distilled (“dd”) H2O was first added to an autoclave beaker. The following salts and nutrients were added to a beaker and mixed well: 5 mL of 250 mM of KPO4 (pH 5.5), 2.5 mL of 1M KNO3, 1 mL of 1M MgSO4, 1 mL of 1M Ca(NO3)2, 0.5 mL of Ferric EDTA (1000× or 49 mM) and 0.5 mL of Micronutrients (1000×). In a 1 L autoclaved bottle, 0.6% (3 g) of bacteriological agar was added, followed by 500 mL solution prepared above. The media was autoclaved using the Liquid-30 program.
# PNS plates were used for plating sterile Arabidopsis thaliana (Columbia-0) seeds. A sterile stock of PNS agar was maintained. Sterile sucrose was added to PN media to make PNS media. To make PNS media containing 0.5% sucrose, 5 mL of 50% sucrose (sterile filtered) was added to 500 mL of PN agar and mixed well.
# The stored PNS media was liquefied using a water bath and allowed to cool to 55° C. The type of plates, compounds, and concentrations to be used were confirmed while the media cooled. The plates were labeled on the cover and the bottom with all the relevant information. 50 mL sterile centrifuge tubes were used to measure 29,940 μL (29.94 mL) PNS media. A fresh sterile 50 mL tube was used for each plate. The desired amount and concentration of compound was added to the PNS media, mixed by inverting the tube and poured in the plate. Total volume of media and compound in each plate was kept constant at 30 mL. A maximum of 60 μL (0.2% by volume) compound was added per plate. For example: 60 μL of 25 mM compound was added to 29.94 mL PNS media to get final concentration of 50 μM compound in PNS media. Plates were incubated at room temperature for 2 hours before plating seeds on them.
# Hands and bench area were washed thoroughly before beginning. Sterilizing solution was prepared in a sterile 15 mL centrifuge tube, by mixing 5 mL of 30% bleach and 5 μL of 10% Triton X-100. A. thaliana Col-0 seeds were added to sterile 1.5 mL micro-centrifuge tube. 500 μL of sterilizing solution (30% bleach+0.01% Triton X-100) was added to the seeds, vortexed for 3 seconds and incubated at room temperature for 8 minutes. After 8 minutes, bleach was removed and 1 mL autoclaved MilliQ water was added. […]
# [2] = study of hydraphiles having various chain lengths; cited from earlier work
Molecule,Primary root length ([1]; hydraphile 20 μM in PNS media) [mm],"Primary root length ([1]; hydraphile 20 μM in PNS media, listed as C8 benzyl hydraphile (compound 1)) [mm]",Decrease in primary root length ([1]; hydraphile 20 μM) [%],"Lateral root density ([1]; hydraphile 20 μM, lateral roots divided by primary root length)",Primary root length ([1]; hydraphile 50 μM in PNS media) [mm],"Primary root length ([1]; hydraphile 50 μM in PNS media, listed as C8 benzyl hydraphile (compound 1)) [mm]",Decrease in primary root length ([1]; hydraphile 50 μM) [%],"Lateral root density ([1]; hydraphile 50 μM, lateral roots divided by primary root length)",Sodium cation conduction [2],Effect on number of lateral roots relative to control ([1]; SAT 50 μM),Effect on primary root length relative to control ([1]; SAT 50 μM),Overall effect on growth / root morphology relative to control ([1]; SAT 50 μM),Lateral root density ([1]; SAT 50 μM in PNS),Number of lateral roots ([1]; SAT 50 μM in PNS),Primary root length ([1]; SAT 50 μM in PNS) [mm]
c1ccc(CN2CCOCCOCCN(CCCCCCCCN3CCOCCOCCN(CCCCCCCCN4CCOCCOCCN(Cc5ccccc5)CCOCCOCC4)CCOCCOCC3)CCOCCOCC2)cc1 [C8 hydraphile (1)],34 ± 7,34±7,9,0.15±0.01,31 ± 6,31±6,19,0.18±0.03,did not conduct sodium cation efficiently,,,,,,
(C12H25)2NCOCH2CH2CO-GGGPSGS-OC7H15 ({(C12H25)2NCOCH2CH2CO}-GGGPSGS-OC7H15; SMILES CCCCCCCCCCCCN(CCCCCCCCCCCC)C(=O)CCC(=O)NCC(=O)NCC(=O)NCC(=O)N1CCC[C@H]1C(=O)N[C@@H](CO)C(=O)NCC(=O)N[C@@H](CO)C(=O)OCCCCCCC) [Compound 15],,,,,,,,,,does not show such a dramatic effect,dramatic reduction in primary root length,shorter primary root and new lateral roots,0.51 ± 0.03,4.5 ± 0.4,9.0 ± 1.2
[CH3(CH2)17]2NCOCH2OCH2CO-Gly-Gly-Gly-Pro-Gly-Gly-Gly-O(CH2)6CH3 ({(CH3(CH2)17)2NCOCH2OCH2CO}-GGGPGGG-{O(CH2)6CH3}; SMILES CCCCCCCCCCCCCCCCCCN(CCCCCCCCCCCCCCCCCC)C(=O)COCC(=O)NCC(=O)NCC(=O)NCC(=O)N1CCC[C@H]1C(=O)NCC(=O)NCC(=O)NCC(=O)OCCCCCCC) [Compound 9],,,,,,,,,,within experimental error of the PNS control,within experimental error of the PNS control,,0.17 ± 0.02,6.8 ± 1.3,40.5 ± 3.4
